Experimental data taken from patent US20190153024A1, “NOVEL SALTS AND POLYMORPHS OF SCY-078” (priority 2015, published 2019).

Key:
[1] = Solid form stability on storage under ambient conditions; type: physicochemical; conditions: 2 days
Experimental: SCY-078 Citrate Type E: SCY-078 citrate Type E was obtained by drying a metastable solvate SCY-078 citrate Type R from MeOH/IPAc.
SCY-078 Citrate Type M: SCY-078 citrate Type M was obtained by storing SCY-078 citrate Type E in ambient conditions for 2 days. […] (onset temperatures) (FIG. 58). […] (FIG. 58).
SCY-078 Trifluoroacetate Type A is highly crystalline as shown in the XRPD (FIG. 85). […] The molar ratio of trifluoroacetate Type A (acid: freebase) was determined to be 1:1 via HPLC-IC confirmation.

[2] = Kinetic solubility of trifluoroacetate Types A and B and HCl Type I (alternative procedure: SGF, FaSSIF and FeSSIF alternative media, acetate pH 5.5, phosphate pH 6.0 alternative media); conditions: for Form change: residual solid by XRPD
[3] = Physical and chemical stability of trifluoroacetate Types A and B and HCl Type I for 1, 2, 4 and 8 weeks; type: physicochemical
[4] = Form change of trifluoroacetate on storage at varying relative humidity; type: physicochemical; conditions: storage for 24 hours
Experimental: To investigate transition relationship of trifluoroacetate Type A and Type B, both samples were stored in chambers with varying relative humidity to monitor any form change. […] Varying temperature (VT)-XRPD of trifluoroacetate Type A was performed.

[5] = pH value of saturated SCY-078 salt solutions in water; type: physicochemical; conditions: saturated salt solution in H2O, room temperature; for pH 1 hr: equilibrated 1 hour; for pH 24 hrs: equilibrated 24 hours
Experimental: To test the pH, a solution of each compound was equilibrated at room temperature using a rolling incubator (25 rpm) for 1 hour and 24 hours before measurement.

[6] = Dynamic Vapor Sorption (DVS) water uptake; type: physicochemical; conditions: for solid form by XRPD after DVS: after DVS experiment
Experimental: Dynamic Vapor Sorption (DVS)—The term “DVS” means the procedure described in below. The relative humidity at 25° C. was calibrated against deliquescence point of LiCl, Mg(NO3)2 and KCl.
The DVS of SCY-078 salts were tested according to the above method, using a 10-20 mg sample size. The DVS was measured using a Surface Measurement Systems (SMS) DVS Intrinsic.

[7] = Chemical and physical stability of SCY-078 salts on storage (25° C./60% RH, 40° C./75% RH, 60° C.); type: physicochemical
Description: For all compounds tested other than the trifluoroacetate salts (Type A and B) and the HCl Type I and II salts, the conditions and parameters used for measuring solubility are shown in Table 2A and for measuring stability are showing in Table 3A. The conditions and parameters used for the solubility of the trifluoroacetate salts (Type A and B) and the HCl Type I and II salts are shown in Table 2B and for stability are shown in Table 3B.

[8] = 25° C./60% RH (uncapped), 1 week
[9] = 25° C./60% RH (uncapped), 2 weeks
[10] = 25° C./60% RH (uncapped), 4 weeks
[11] = 25° C./60% RH (uncapped), 8 weeks
[12] = 40° C./75% RH (uncapped), 1 week
[13] = 40° C./75% RH (uncapped), 2 weeks
[14] = 40° C./75% RH (uncapped), 4 weeks
[15] = 40° C./75% RH (uncapped), 8 weeks
[16] = 25° C./60% RH, open dish, 1 week
[17] = 40° C./75% RH, open dish, 1 week

Compound: CC(C)[C@@H](C)[C@@]1(C)CC[C@]2(C)[C@H]3CC[C@@H]4[C@@]5(COC[C@]4(C)[C@@H](OC[C@](C)(N)C(C)(C)C)[C@H](n4ncnc4-c4ccncc4)C5)C3=CC[C@@]2(C)[C@@H]1C(=O)O.O=C(O)CC(O)(CC(=O)O)C(=O)O [SCY-078 citrate Type E]
- solid form stability at ambient conditions [1]: not stable

Compound: CC(C)[C@@H](C)[C@@]1(C)CC[C@]2(C)[C@H]3CC[C@@H]4[C@@]5(COC[C@]4(C)[C@@H](OC[C@](C)(N)C(C)(C)C)[C@H](n4ncnc4-c4ccncc4)C5)C3=CC[C@@]2(C)[C@@H]1C(=O)O.O=C(O)C(F)(F)F [SCY-078 Trifluoroacetate Type A]
- form change of residual solid in FaSSIF alternative media ([2]; FaSSIF alternative media, ambient temperature, listed as trifluoroacetate Type A): no form change was observed
- form change of residual solid in FeSSIF alternative media ([2]; FeSSIF alternative media, ambient temperature, listed as Trifluoroacetate Type A): converted to Type B
- form change of residual solid in SGF ([2]; SGF, ambient temperature, listed as trifluoroacetate Type A): no form change was observed
- solubility in acetate buffer (comparison) ([2]; acetate buffer pH 5.5, ambient temperature, 4 hr and 24 hrs): higher solubility
- form change of residual solid in acetate buffer ([2]; acetate buffer pH 5.5, ambient temperature, listed as Trifluoroacetate Type A): no form change was observed
- solubility trend in FeSSIF alternative media ([2]; after an hour): decreasing solubility
- solubility in phosphate (pH 6.0) alternative media (comparison) ([2]; phosphate (pH 6.0) alternative media, ambient temperature, 4 hr and 24 hrs): lower solubility
- form change of residual solid in phosphate (pH 6.0) alternative media ([2]; phosphate (pH 6.0) alternative media, ambient temperature, listed as Trifluoroacetate Type A): firstly converted to Type B at 4 hrs and back to Type A at 24 hrs
- physical and chemical stability ([3]; 25° C./60% RH, 40° C./75% RH and 60° C., 8 weeks, listed as trifluoroacetate Type A): physically and chemically stable
- solid form stability at ambient conditions [1]: converted to Type B

Compound: CC(C)[C@@H](C)[C@@]1(C)CC[C@]2(C)[C@H]3CC[C@@H]4[C@@]5(COC[C@]4(C)[C@@H](OC[C@](C)(N)C(C)(C)C)[C@H](n4ncnc4-c4ccncc4)C5)C3=CC[C@@]2(C)[C@@H]1C(=O)O.O=C(O)C(F)(F)F [TFA Type B]
- Form change ([2]; FeSSIF alternative media, 1 hr): No
- Form change ([2]; FeSSIF alternative media, 4 hrs): No
- Form change ([2]; FeSSIF alternative media, 24 hrs): No
- Form change ([2]; phosphate (pH 6.0) alternative media, 4 hrs): No
- Form by XRPD after storage ([4]; Relativity Humidity 0%): Type B
- Form by XRPD after storage ([4]; Relativity Humidity 22%): Type B
- Form by XRPD after storage ([4]; Relativity Humidity 97%): Type A
- HPLC purity [3, 8]: 99.9%
- Solid form [3, 8]: Type A
- HPLC purity [3, 9]: 99.9%
- Solid form [3, 9]: Type A
- HPLC purity [3, 10]: 99.9%
- Solid form [3, 10]: Type A
- HPLC purity [3, 11]: 99.9%
- Solid form [3, 11]: Type A
- HPLC purity [3, 12]: 99.9%
- Solid form [3, 12]: Type A
- HPLC purity [3, 13]: 99.9%
- Solid form [3, 13]: Type A
- HPLC purity [3, 14]: 99.9%
- Solid form [3, 14]: Type A
- HPLC purity [3, 15]: 99.9%
- Solid form [3, 15]: Type A
- HPLC purity ([3]; 60° C. (capped), 1 week): 99.9%
- Solid form ([3]; 60° C. (capped), 1 week): Type A
- HPLC purity ([3]; 60° C. (capped), 2 weeks): 99.9%
- Solid form ([3]; 60° C. (capped), 2 weeks): Type A
- HPLC purity ([3]; 60° C. (capped), 4 weeks): 99.9%
- Solid form ([3]; 60° C. (capped), 4 weeks): Type A
- HPLC purity ([3]; 60° C. (capped), 8 weeks): 99.9%
- Solid form ([3]; 60° C. (capped), 8 weeks): Type A
- Initial HPLC purity ([3]; Initial): 99.9%

Compound: CC(C)[C@@H](C)[C@@]1(C)CC[C@]2(C)[C@H]3CC[C@@H]4[C@@]5(COC[C@]4(C)[C@@H](OC[C@](C)(N)C(C)(C)C)[C@H](n4ncnc4-c4ccncc4)C5)C3=CC[C@@]2(C)[C@@H]1C(=O)O.O=C(O)CC(O)(CC(=O)O)C(=O)O [SCY-078 citrate Type A]
- pH 1 hr [5]: 3.5
- pH 24 hrs [5]: 3.8
- solid form by XRPD after DVS [6]: No form change
- time stable when stored ([7]; 25° C. and 60% relative humidity): at least 1 week
- Impurity % by HPLC [7, 16]: 0.09%
- time stable when stored ([7]; 40° C. and 75% relative humidity): at least 1 week
- Impurity % by HPLC [7, 17]: 0.10%
- time stable when stored ([7]; 60° C.): at least 1 week
- Impurity % by HPLC ([7]; 60° C., closed dish, 1 week): 0.17%
- Impurity % by HPLC ([7]; Initial): 0.34%

Compound: CC(C)[C@@H](C)[C@@]1(C)CC[C@]2(C)[C@H]3CC[C@@H]4[C@@]5(COC[C@]4(C)[C@@H](OC[C@](C)(N)C(C)(C)C)[C@H](n4ncnc4-c4ccncc4)C5)C3=CC[C@@]2(C)[C@@H]1C(=O)O.O=C(O)/C=C/C(=O)O [SCY-078 fumarate Type A]
- pH 1 hr [5]: 4.4
- pH 24 hrs [5]: 3.8
- water uptake (DVS) ([6]; 25° C., 80% RH): 2.5%
- solid form by XRPD after DVS [6]: no form change
- Impurity % by HPLC [7, 16]: 0.09%
- Impurity % by HPLC [7, 17]: 0.10%
- Impurity % by HPLC ([7]; 60° C., closed dish, 1 week): 0.10%
- Impurity % by HPLC ([7]; Initial): 0.12%
